Test system: hepatocytes
Test: Seq-Well scRNA-Seq of hepatocytes after APAP overdose (signature scores, DEG vs untreated)
Format: in vivo, mouse
Conditions: A6 vs UT

## CC(=O)Nc1ccc(O)cc1 [APAP, acetaminophen]
  Plbd2 pct.1: 0.344
  Plcxd2 A6logFC: −0.2752
  Plcxd2 avg_logFC: −0.2752
  Plcxd2 pct.1: 0.162
  Plec avg_logFC: 0.4675
  Plec pct.1: 0.422
  Plek avg_logFC: 0.3089
  Plek pct.1: 0.11
  Plin2 avg_logFC: 1.461
  Plin5 avg_logFC: 0.2963
  Plin5 pct.1: 0.456
  Plscr1 avg_logFC: 0.4445
  Pmpcb avg_logFC: −0.2636
  Pmpcb pct.1: 0.356
  Pnkd A6logFC: −0.2928
  Pon1 avg_logFC: −0.6858
  Ppan avg_logFC: 0.2724
  Ppan pct.1: 0.255
  Ppara avg_logFC: −0.2871
  Ppara pct.1: 0.234
  Ppib avg_logFC: −0.5897
  Ppip5k2 A6logFC: 0.3209
  Ppip5k2 avg_logFC: 0.3209
  Ppip5k2 pct.1: 0.344
  Ppl avg_logFC: 0.8798
  Ppm1g A6logFC: 0.2522
  Ppm1g avg_logFC: 0.2522
  Ppm1g pct.1: 0.358
  Ppm1k avg_logFC: −0.5584
  Ppp1r3b avg_logFC: −0.4027
  Ppp1r3b pct.1: 0.098
  Ppp2r5a avg_logFC: −0.2605
  Ppp2r5a pct.1: 0.43
  Prdx1 avg_logFC: −0.5292
  Prdx4 avg_logFC: −0.4176
  Prdx4 pct.1: 0.372
  Proc A6logFC: −0.2707
  Prpf19 A6logFC: 0.2588
  Prpf19 avg_logFC: 0.2588
  Prpf19 pct.1: 0.432
  Prrc2c avg_logFC: 0.4393
  Prrc2c pct.1: 0.415
  Psap A6logFC: 0.2578
  Psap avg_logFC: 0.2578
  Psap pct.1: 0.556
  Psat1 avg_logFC: 0.3012
  Psen2 avg_logFC: −0.9474
  Psma1 A6logFC: −0.2567
  Psma1 avg_logFC: −0.2567
  Psma1 pct.1: 0.353
  Psma6 A6logFC: −0.3035
  Psma6 avg_logFC: −0.3035
  Psma6 pct.1: 0.501
  Psme1 avg_logFC: −0.394
  Psme1 pct.1: 0.26
  Ptpmt1 A6logFC: −0.256
  Ptpmt1 avg_logFC: −0.256
  Ptpmt1 pct.1: 0.372
  Ptpn1 avg_logFC: 0.4163
  Ptpn1 pct.1: 0.353
  Ptpn11 A6logFC: 0.2778
  Ptpn11 avg_logFC: 0.2778
  Ptpn11 pct.1: 0.37
  Ptprc avg_logFC: 0.4165
  Pvrl2 A6logFC: −0.2613
  Qdpr avg_logFC: −0.5236
  Qdpr pct.1: 0.606
  Rab6a A6logFC: 0.3234
  Rabac1 A6logFC: −0.266
  Rabac1 avg_logFC: −0.266
  Rabac1 pct.1: 0.346
  Rad54l2 avg_logFC: 0.3887
  Rad54l2 pct.1: 0.325
  Ranbp2 avg_logFC: 0.5985
  Rangap1 A6logFC: 0.2962
  Rangap1 avg_logFC: 0.2962
  Rangap1 pct.1: 0.387
  Rap1b A6logFC: 0.3408
  Rap1b avg_logFC: 0.3408
  Rap1b pct.1: 0.406
  Rarres2 avg_logFC: −0.5522
  Rassf3 A6logFC: 0.2912
  Rassf3 avg_logFC: 0.2912
  Rassf3 pct.1: 0.422
  Rbm25 A6logFC: 0.4215
  Rbm39 A6logFC: 0.2657
  Rbm39 avg_logFC: 0.2657
  Rbm39 pct.1: 0.506
  Rcan1 avg_logFC: 0.7073
  Rdh7 avg_logFC: −0.4186
  Reep3 A6logFC: 0.409
  Reep3 avg_logFC: 0.409
  Reep3 pct.1: 0.535
  Rell1 avg_logFC: 0.5912
  Retnlg avg_logFC: 0.3751
  Retsat avg_logFC: 0.4911
  Rgs2 avg_logFC: 0.3957
  Rgs2 pct.1: 0.138
  Riok3 A6logFC: 0.2916
  Riok3 avg_logFC: 0.2916
  Riok3 pct.1: 0.43
  Rmnd5a A6logFC: 0.3189
  Rmnd5a avg_logFC: 0.3189
  Rmnd5a pct.1: 0.47
  Rnase4 avg_logFC: −1.049
  Rnaseh2c A6logFC: −0.3257
  Rnd3 avg_logFC: 0.3655
  Rnd3 pct.1: 0.284
  Rnf144a avg_logFC: 0.313
  Rnf144a pct.1: 0.177
  Rnf169 A6logFC: 0.334
  Rnf169 avg_logFC: 0.334
  Rnf169 pct.1: 0.315
  Rock1 A6logFC: 0.2608
  Rock1 avg_logFC: 0.2608
  Rock1 pct.1: 0.413
  Rock2 avg_logFC: 0.5941
  Romo1 A6logFC: −0.3359
  Rora avg_logFC: 0.6444
  Rpl13a avg_logFC: −0.3815
  Rpl13a pct.1: 0.704
  Rpl13 avg_logFC: −0.2988
  Rpl13 pct.1: 0.294
  Rpl14 A6logFC: −0.2776
  Rpl14 avg_logFC: −0.2776
  Rpl14 pct.1: 0.372
  Rpl34 A6logFC: −0.2976
  Rpl36al avg_logFC: −0.4755
  Rpl36al pct.1: 0.284
  Rplp1 avg_logFC: −0.5047
  Rplp1 pct.1: 0.449
  Rps15 avg_logFC: −0.4552
  Rps15 pct.1: 0.301
  Rps18 avg_logFC: −0.4885
  Rps18 pct.1: 0.337
  Rps24 A6logFC: −0.2625
  Rps24 avg_logFC: −0.2625
  Rps24 pct.1: 0.453
  Rps27l avg_logFC: −0.8659
  Rraga A6logFC: 0.2626
  Rraga avg_logFC: 0.2626
  Rraga pct.1: 0.337
  Rsl1d1 A6logFC: 0.3461
  S100a8 avg_logFC: 1.128
  S100a9 avg_logFC: 1.343
  Saa4 avg_logFC: −0.571
  Sat1 avg_logFC: 0.6887
  Sc5d avg_logFC: −0.5009
  Sc5d pct.1: 0.58
  Scaf11 A6logFC: 0.3598
  Sco2 avg_logFC: −0.2605
  Sco2 pct.1: 0.353
  Scp2 avg_logFC: −0.5191
  Sdad1 avg_logFC: 0.3124
  Sdad1 pct.1: 0.289
  Sdc3 pct.1: 0.103
  Sdc4 avg_logFC: 0.6196
  Sdr9c7 A6logFC: −0.26
  Sec61b A6logFC: −0.2903
  Sec1412 avg_logFC: −0.7897
  Selenbp1 avg_logFC: −0.4937
  Selenbp1 pct.1: 0.401
  Selenbp2 avg_logFC: −1.009
  Selo A6logFC: −0.2574
  Selo avg_logFC: −0.2574
  Selo pct.1: 0.217
  Sema4g A6logFC: −0.2505
  Sema4g avg_logFC: −0.2505
  Sema4g pct.1: 0.27
  Serbp1 A6logFC: 0.3227
  Serbp1 avg_logFC: 0.3227
  Serbp1 pct.1: 0.659
  Serpina1a avg_logFC: −0.3785
  Serpina1e avg_logFC: −0.2684
  Serpina1e pct.1: 0.99
  Serpina3m avg_logFC: 0.9674
  Serpina3n avg_logFC: 0.8483
  Serpina12 avg_logFC: −0.4534
  Serpina12 pct.1: 0.232
  Serpina1d avg_logFC: −0.289
  Serpina1d pct.1: 0.926
  Sf3b1 A6logFC: 0.2888
  Sf3b1 avg_logFC: 0.2888
  Sf3b1 pct.1: 0.508
  Sgk1 A6logFC: 0.2843
  Shmt1 avg_logFC: −0.3932
  Shmt1 pct.1: 0.339
  Sigmar1 A6logFC: −0.3055
  Slc4a4 avg_logFC: 0.4203
  Slc4a4 pct.1: 0.513
  Slc10a2 avg_logFC: 0.299
  Slc10a2 pct.1: 0.255
  Slc16a2 A6logFC: −0.252
  Slc16a2 avg_logFC: −0.252
  Slc16a2 pct.1: 0.255
  Slc16a6 avg_logFC: 0.9114
  Slc16a10 A6logFC: −0.2548
  Slc16a10 avg_logFC: −0.2548
  Slc16a10 pct.1: 0.196
  Slc20a1 avg_logFC: 0.3572
  Slc20a1 pct.1: 0.284
  Slc22a1 avg_logFC: −0.7979

Reference: patent US20230053540A1, “TREATMENT OF LIVER INJURY” (Massachusetts Institute of Technology, priority 2019, published 2023)
